Experimental data: patent publication US20110059947A1, “ALPHA 7 NICOTINIC AGONISTS AND ANTIPSYCHOTICS” (Targacept, Inc., priority 2008, published 2011)
“And” between values parts separate entries of the source, which are not always exact repeats. Equal values may be shown once.

Assays:
[1] = molecular target: T1, human α4β2 sub-type (Homo sapiens, UniProt P17787+P43681); experiment: Functional activation in Xenopus oocytes (electrophysiology); type: cell-based
T1 construct: expressed in transfected cells; host or cells: Xenopus oocytes

[2] = tested on: rat ganglion receptors; experiment: Ganglion function (Ca++ flux), PC-12 Shooter cells; type: cell-based; conditions: rat PC-12 Shooter cells, % of nicotine's Emax
[3] = molecular target: T2, human α4β2 receptors (Homo sapiens, UniProt P17787+P43681); experiment: [3H]-(S)-nicotine competition binding in SH-EP1 cellular membranes; conditions: SH-EP1 cells
T2 construct: expressed in transfected cells; host or cells: SH-EP1

[4] = tested on: Sprague-Dawley rats; experiment: Apomorphine-induced impairment of pre-pulse inhibition; type: in vivo, rat; conditions: Compound A 0.3 mg/kg s.c., apomorphine 1.0 mg/kg s.c., p<0.001
[5] = molecular target: opioid receptor; conditions: read-out: Ki opioid site; dose-response assessment
[6] = tested on: th(tk-)/th(tk-) mice; experiment: Prepulse inhibition (PPI) and acoustic startle in th(tk-)/th(tk-) and control mice; type: in vivo
[7] = molecular target: T3, 5HT3 receptors (Homo sapiens, UniProt P46098); experiment: 5HT3 receptor radioligand binding, human receptor; conditions: 10 μM
T3 sequence (P46098 24-478): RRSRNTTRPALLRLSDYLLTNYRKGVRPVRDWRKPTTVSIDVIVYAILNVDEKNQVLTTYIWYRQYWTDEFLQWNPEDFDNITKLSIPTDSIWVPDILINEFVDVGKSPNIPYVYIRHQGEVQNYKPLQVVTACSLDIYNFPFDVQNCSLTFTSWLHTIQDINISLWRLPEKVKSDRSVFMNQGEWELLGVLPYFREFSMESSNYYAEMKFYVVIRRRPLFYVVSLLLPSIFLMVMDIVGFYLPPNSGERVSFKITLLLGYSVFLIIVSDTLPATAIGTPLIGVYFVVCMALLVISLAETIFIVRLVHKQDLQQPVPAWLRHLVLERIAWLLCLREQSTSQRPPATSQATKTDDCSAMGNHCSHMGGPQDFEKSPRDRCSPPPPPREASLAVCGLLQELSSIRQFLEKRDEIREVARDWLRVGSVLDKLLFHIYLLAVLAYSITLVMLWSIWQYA

[8] = tested on: non-nicotinic receptor classes; experiment: Broad receptor selectivity battery (Novascreen); conditions: criterion: inhibition of receptor-selective ligand binding >50% at 10 μM
[9] = tested on: rats; experiment: Novel object recognition (NOR) in rats; type: in vivo, rat
Description: The object recognition model is based on a rodent's spontaneous tendency to explore novel aspects of their environment and this exploratory activity can be an index for memory function (Ennaceur and Delacour, 1988). The NOR test measures the capacity to recognize an object presented on two occasions, some time apart. The test arena consisted of a 17.5×17.5″ clear Plexiglas™ with walls 12″ in height. The arena was enclosed in an opaque, sound-attenuating chamber and the doors (opening to the front side) remained open. […] On the first two days of this sub-acute dosing paradigm, administrations were followed 30 minutes later by an exploratory (habituation) trial (6 minutes) on Day 1 (no objects) and object recognition acquisition trial (3 minutes) on Day 2 (2 of the same objects). On the third day the final OR trial, or recall trial (3 minutes; one familiar, one novel object) was started at either 30 min, 2 h, 6 h, 18 h or 24 h after compound administration. For the recall trial, a video camera was positioned approximately 36″ from the unshielded side of the arena for videotaping of the animals' behaviors. These behaviors were subsequently hand-scored by a blinded observer assessing the time spent exploring a novel (object B) versus a familiar (object A) object during this recall exposure trial. Absolute exploration time for each object was recorded, and a % recognition index was calculated as follows: % RI=[(time investigating novel object)/(total time investigating both novel+familiar objects)] […] Where significant overall effects were found, post-hoc analyses were performed. P<0.05 was considered significant.

[10] = molecular target: T4, 5HT3 receptors (Mus musculus, UniProt P23979); experiment: 5HT3 receptor radioligand binding, mouse receptor; conditions: 10 μM
T4 sequence (P23979 24-489): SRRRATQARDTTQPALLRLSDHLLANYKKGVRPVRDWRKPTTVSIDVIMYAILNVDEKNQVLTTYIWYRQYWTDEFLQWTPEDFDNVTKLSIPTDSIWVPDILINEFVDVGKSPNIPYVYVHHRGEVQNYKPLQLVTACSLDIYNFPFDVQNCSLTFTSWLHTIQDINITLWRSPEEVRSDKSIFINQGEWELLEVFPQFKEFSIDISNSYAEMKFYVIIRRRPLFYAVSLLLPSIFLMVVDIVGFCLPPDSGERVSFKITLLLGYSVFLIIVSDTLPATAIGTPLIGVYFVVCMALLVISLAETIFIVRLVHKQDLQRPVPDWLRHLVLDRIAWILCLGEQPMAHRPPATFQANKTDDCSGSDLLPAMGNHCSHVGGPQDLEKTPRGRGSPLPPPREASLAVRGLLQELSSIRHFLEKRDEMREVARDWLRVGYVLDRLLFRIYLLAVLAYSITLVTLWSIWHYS

[11] = tested on: human ganglion receptors; experiment: Ganglion function (Ca++ flux), SH-SY5Y cells; type: cell-based; conditions: % of nicotine's Emax
[12] = molecular target: T5, sigma site 2 (Homo sapiens, UniProt Q5BJF2); experiment: Sigma site 2 binding (Novascreen)
T5 construct: Novascreen

[13] = molecular target: T6, human muscle receptors (Homo sapiens, UniProt P02708+P07510+Q07001); experiment: Muscle function (Ca++ flux), TE-671 cells; type: cell-based; conditions: human TE-671 cells, % of nicotine's Emax
T6 construct: expressed in appropriate rat and human cell lines; endogenous in cells

[14] = molecular target: T3, 5HT3 receptors; experiment: Functional activation at the human 5HT3 receptor; type: cell-based; conditions: read-out: maximal response, functional activation of human 5HT3 receptor

`O=C(N[C@@H]1C2CCN(CC2)[C@H]1Cc1cccnc1)c1cc2ccccc2o1` [Compound A, (2S,3R)—N-(2-((3-pyridinyl)methyl)-1-azabicyclo[2.2.2]oct-3-yl)benzofuran-2-carboxamide] was tested, and the “activation of human α4β2” value [1] was “no detectable activation”, the “decreases in subsequent control responses to ACh (α4β2)” value [1] was “no significant decreases” and the “Ganglion Function (Ca++ flux) % nicotine @ 10 uM” value ([2]; 10 uM) was 11 % nicotine and 11 ± 6 % nicotine. For the same molecule, the “Ganglion Function (Ca++ flux) % nicotine @ 100 uM” value ([2]; 100 uM) was 20 % nicotine and 20 ± 8 % nicotine, the Ki [3] was 2.8 µM and the “PPI deficits induced by apomorphine” value [4] was “significantly reversed PPI deficits”. For the same molecule, the Ki [5] was 13 µM, the PPI or startle ([6]; Compound A 0.1 mg/kg given individually) was “little effect” and the PPI ([6]; control (wild type) mice, Compound A) was “no effect on control”. For the same molecule, the startle response ([6]; th(tk-)/th(tk-) mice, Compound A) was “normalizes startle response”, the “deficits in PPI” value ([6]; th(tk-)/th(tk-) mice, Compound A (0.1 and 0.3 mg/kg analyzed)) was “reverse deficits in PPI” and the “PPI, main effect” value ([6]; transgenic th(tk-)/th(tk-) mice, Compound A 0.1 mg/kg alone) was “no significant main effect”. For the same molecule, the “inhibition of radioligand binding at 5HT3, human receptor” value [7] was 25 % inhibition, the “interactions with other non-nicotinic receptor classes” value [8] was “minimal interactions” and the “time investigating novel versus familiar object” value ([9]; rats, 0.3 mg/kg, 30 min, 2 h, 6 h and 18 h after final sub-acute (q.d. x3 days) administration) was “significantly more time investigating the novel object than the familiar object”. For the same molecule, the “time spent investigating the novel object” value ([9]; rats, 0.3, 1 and 10 mg/kg p.o., 30 minutes after 3rd q.d. administration) was “significantly increased the time spent investigating the novel object”, the “duration of working memory facilitation after third sub-acute daily administration” value ([9]; young rats, 0.3 mg/kg) was “up to 18 hours” and the “inhibition of radioligand binding at 5HT3, mouse receptor” value [10] was 59 % inhibition. For the same molecule, the “Ganglion Function (Ca++ flux) % nicotine @ 10 uM” value ([11]; 10 uM) was 6 % nicotine and 6 ± 2 % nicotine, the “Ganglion Function (Ca++ flux) % nicotine @ 100 uM” value ([11]; 100 uM) was 11 % nicotine and 11 ± 1 % nicotine and the “inhibition of ligand binding, sigma site 2” value ([12]; 10 μM) was 79 % inhibition. The Ki ([12]; dose-response assessment) was 13 µM, the “Muscle Function (Ca++ flux) % nicotine @ 10 uM” value ([13]; 10 uM) was 5 % nicotine and 5 ± 2 % nicotine and the “Muscle Function (Ca++ flux) % nicotine @ 100 uM” value ([13]; 100 uM) was 12 % nicotine and 12 ± 7 % nicotine. It also gave an Emax at 100 µM [14] of 15%.
